Measurements: the supplement of paper PMC9938120

Experiments:
Experiment in all cases: drug sensitivity score (DSS3, normalised partial AUC of % inhibition dose-response) (DSS (score)); higher = more sensitive (stronger inhibition of viability); extreme values may be limits of the assay
[1] = test system: FMOC02_2 (patient-derived low-grade serous ovarian cancer cells); conditions: 72 h; library: FO5A; assay format: 2D, 384-well, CellTiter-Glo
Procedure, shortened: (§1)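 Cells were dispensed onto 384-well flat clear-bottom plates already holding compounds at five concentrations over a 10,000-fold range, using patient-derived ovarian cancer cells at passage under 10. Incubation lasted 72 h at 37 °C in 5% CO2, after which CellTiter-Glo viability data were processed in Breeze. Higher drug sensitivity scores, each a partial area under the percent-inhibition dose-response curve divided by the log of the upper asymptote, mean more sensitive cells.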

[2] = test system: FMOC02_3 (patient-derived low-grade serous ovarian cancer cells); conditions: 72 h; library: FO5A; assay format: 2D, 384-well, CellTiter-Glo
Procedure, shortened: as §1

[3] = test system: FMOC03 (patient-derived mucinous ovarian cancer cells); conditions: 72 h; library: FO5A; assay format: 2D, 384-well, CellTiter-Glo
Procedure, shortened: as §1

[4] = test system: FMOC06 (patient-derived mucinous ovarian cancer cells); conditions: 72 h; library: FO5A; assay format: 2D, 384-well, CellTiter-Glo
Procedure, shortened: as §1

[5] = test system: FMOC09 (patient-derived high-grade serous ovarian cancer cells); conditions: 72 h; library: FO5A; assay format: 2D, 384-well, CellTiter-Glo
Procedure, shortened: as §1

[6] = test system: FMOC14 (patient-derived high-grade serous ovarian cancer cells); conditions: 72 h; library: FO5A; assay format: 2D, 384-well, CellTiter-Glo
Procedure, shortened: as §1

[7] = test system: FMOC22 (patient-derived mucinous ovarian cancer cells); conditions: 72 h; library: FO5A; assay format: 2D, 384-well, CellTiter-Glo
Procedure, shortened: as §1

[8] = test system: FMOC24 (patient-derived high-grade serous ovarian cancer cells); conditions: 72 h; library: FO5A; assay format: 2D, 384-well, CellTiter-Glo
Procedure, shortened: as §1

[9] = test system: FMOC25_1 (patient-derived low-grade serous ovarian cancer cells); conditions: 72 h; library: FO4B; assay format: 2D, 384-well, CellTiter-Glo
Procedure, shortened: as §1

[10] = test system: FMOC25_2 (patient-derived low-grade serous ovarian cancer cells); conditions: 72 h; library: FO5A; assay format: 2D, 384-well, CellTiter-Glo
Procedure, shortened: as §1

SMILES: O=C(O)C1(C(=O)O)CCC1.[NH2-].[NH2-].[Pt+2] [Carboplatin]
- drug sensitivity score [1]: 4.9
- drug sensitivity score [2]: 5
- drug sensitivity score [3]: 0.6
- drug sensitivity score [4]: 1.3
- drug sensitivity score [5]: 9.1
- drug sensitivity score [6]: 4.9
- drug sensitivity score [7]: 2.8
- drug sensitivity score [8]: 8.3
- drug sensitivity score [9]: 1.3
- drug sensitivity score [10]: 2.8

SMILES: CC(C)[C@H](C(=O)Nc1ccc(C(=O)NO)cc1)c1ccccc1 [AR-42]
- drug sensitivity score [1]: 11
- drug sensitivity score [2]: 8.8
- drug sensitivity score [3]: 12.4
- drug sensitivity score [4]: 10.6
- drug sensitivity score [5]: 5.2
- drug sensitivity score [6]: 11.5
- drug sensitivity score [7]: 8.7
- drug sensitivity score [8]: 9.3
- drug sensitivity score [9]: 10.1
- drug sensitivity score [10]: 10.7

SMILES: COc1cc([C@@H]2c3cc4c(cc3[C@@H](O[C@@H]3O[C@@H]5CO[C@@H](C)O[C@H]5[C@H](O)[C@H]3O)[C@H]3COC(=O)[C@H]23)OCO4)cc(OC)c1O [Etoposide]
- drug sensitivity score [1]: 1.4
- drug sensitivity score [2]: 2.7
- drug sensitivity score [3]: 1.7
- drug sensitivity score [4]: 3.5
- drug sensitivity score [5]: 5.6
- drug sensitivity score [6]: 1.7
- drug sensitivity score [7]: 6.1
- drug sensitivity score [8]: 1.9
- drug sensitivity score [9]: 2.8
- drug sensitivity score [10]: 2.9

SMILES: Cc1nc(Nc2ncc(C(=O)Nc3c(C)cccc3Cl)s2)cc(N2CCN(CCO)CC2)n1 [Dasatinib]
- drug sensitivity score [1]: 19.9
- drug sensitivity score [2]: 20.4
- drug sensitivity score [3]: 8.4
- drug sensitivity score [4]: 5
- drug sensitivity score [5]: 17.1
- drug sensitivity score [6]: 5.1
- drug sensitivity score [7]: 0
- drug sensitivity score [8]: 4.5
- drug sensitivity score [9]: 2.8
- drug sensitivity score [10]: 7.7

SMILES: CN(C)C/C=C/C(=O)Nc1cc2c(Nc3ccc(F)c(Cl)c3)ncnc2cc1O[C@H]1CCOC1 [Afatinib]
- drug sensitivity score [1]: 17.5
- drug sensitivity score [2]: 18.2
- drug sensitivity score [3]: 17
- drug sensitivity score [4]: 4.3
- drug sensitivity score [5]: 14.4
- drug sensitivity score [6]: 7.7
- drug sensitivity score [7]: 0.3
- drug sensitivity score [8]: 2.75
- drug sensitivity score [9]: 10.4
- drug sensitivity score [10]: 16.9

SMILES: COc1ccc(-c2ccc3ncc4c(c3c2)n(-c2ccc(N3CCNCC3)c(C(F)(F)F)c2)c(=O)n4C)cn1 [NVP-BGT226]
- drug sensitivity score [1]: 24.7
- drug sensitivity score [2]: 27
- drug sensitivity score [3]: 17.4
- drug sensitivity score [4]: 15.2
- drug sensitivity score [5]: 11.9
- drug sensitivity score [6]: 14.9
- drug sensitivity score [7]: 14.4
- drug sensitivity score [8]: 10.7
- drug sensitivity score [9]: 27.5
- drug sensitivity score [10]: 26.7

SMILES: CC(=O)O[C@@]12CO[C@@H]1C[C@H](O)[C@@]1(C)C(=O)[C@H](O)C3=C(C)[C@@H](OC(=O)[C@H](O)[C@@H](NC(=O)OC(C)(C)C)c4ccccc4)C[C@@](O)([C@@H](OC(=O)c4ccccc4)[C@H]21)C3(C)C [Docetaxel]
- drug sensitivity score [1]: 10.8
- drug sensitivity score [2]: 15.5
- drug sensitivity score [3]: 11.7
- drug sensitivity score [4]: 9.1
- drug sensitivity score [5]: 13.9
- drug sensitivity score [6]: 0
- drug sensitivity score [7]: 12.4
- drug sensitivity score [8]: 0.6
- drug sensitivity score [9]: 12.1
- drug sensitivity score [10]: 15.5

SMILES: Cn1cc(C2=Nc3cc(NC(=O)C(N)C4CCCCC4)cc4c3C2=CNNC4=O)cn1 (stereo not given)
- drug sensitivity score [1]: 7.3
- drug sensitivity score [2]: 9.9
- drug sensitivity score [3]: 4.3
- drug sensitivity score [4]: 3
- drug sensitivity score [5]: 7.6
- drug sensitivity score [6]: 6.8
- drug sensitivity score [7]: 8.3
- drug sensitivity score [8]: 10.1
- drug sensitivity score [9]: 11.7
- drug sensitivity score [10]: 10.9

SMILES: CC(C)C[C@H](NC(=O)[C@H](Cc1ccccc1)NC(=O)c1cnccn1)B(O)O [Bortezomib]
- drug sensitivity score [1]: 28.8
- drug sensitivity score [2]: 24.9
- drug sensitivity score [3]: 28.2
- drug sensitivity score [4]: 26.2
- drug sensitivity score [5]: 20.4
- drug sensitivity score [6]: 28.5
- drug sensitivity score [7]: 28.4
- drug sensitivity score [8]: 30.8
- drug sensitivity score [9]: 27.2
- drug sensitivity score [10]: 30.1

SMILES: CC[C@@H]1C(=O)N(C)c2cnc(Nc3ccc(C(=O)N[C@H]4CC[C@H](N5CCN(CC6CC6)CC5)CC4)cc3OC)nc2N1C(C)C [Volasertib]
- drug sensitivity score [1]: 6.1
- drug sensitivity score [2]: 7.6
- drug sensitivity score [3]: 3.5
- drug sensitivity score [4]: 1.2
- drug sensitivity score [5]: 5.1
- drug sensitivity score [6]: 0.4
- drug sensitivity score [7]: 3.9
- drug sensitivity score [8]: 2.9
- drug sensitivity score [9]: 3.2
- drug sensitivity score [10]: 8.5

SMILES: COc1cccc2c1C(=O)c1c(O)c3c(c(O)c1C2=O)C[C@@](O)(C(=O)CO)C[C@@H]3O[C@H]1C[C@H](N)[C@H](O)[C@H](C)O1 [Doxorubicin]
- drug sensitivity score [1]: 2.9
- drug sensitivity score [2]: 7.2
- drug sensitivity score [3]: 2.6
- drug sensitivity score [4]: 4.3
- drug sensitivity score [5]: 6.5
- drug sensitivity score [6]: 3.6
- drug sensitivity score [7]: 4.5
- drug sensitivity score [8]: 5.65
- drug sensitivity score [9]: 7.7
- drug sensitivity score [10]: 8

SMILES: Nc1nc2[nH]cc(CCc3ccc(C(=O)N[C@@H](CCC(=O)O)C(=O)O)cc3)c2c(=O)[nH]1 [Pemetrexed]
- drug sensitivity score [1]: 0
- drug sensitivity score [2]: 0
- drug sensitivity score [3]: 2.2
- drug sensitivity score [4]: 0.3
- drug sensitivity score [5]: 0
- drug sensitivity score [6]: 0
- drug sensitivity score [7]: 3.4
- drug sensitivity score [8]: 1.55
- drug sensitivity score [9]: 0
- drug sensitivity score [10]: 3.3

SMILES: COC[C@H](NC(=O)c1cnc(C)s1)C(=O)N[C@@H](COC)C(=O)N[C@@H](Cc1ccccc1)C(=O)[C@@]1(C)CO1 [Oprozomib]
- drug sensitivity score [1]: 13.1
- drug sensitivity score [2]: 15.1
- drug sensitivity score [3]: 17.3
- drug sensitivity score [4]: 12.9
- drug sensitivity score [5]: 10.6
- drug sensitivity score [6]: 19.5
- drug sensitivity score [7]: 16.6
- drug sensitivity score [8]: 20.9
- drug sensitivity score [9]: 14.6
- drug sensitivity score [10]: 20.4

SMILES: CC(C)C[C@H](NC(=O)[C@H](CCc1ccccc1)NC(=O)CN1CCOCC1)C(=O)N[C@@H](Cc1ccccc1)C(=O)N[C@@H](CC(C)C)C(=O)[C@@]1(C)CO1 [Carfilzomib]
- drug sensitivity score [1]: 18.7
- drug sensitivity score [2]: 24.6
- drug sensitivity score [3]: 18
- drug sensitivity score [4]: 22.4
- drug sensitivity score [5]: 21.6
- drug sensitivity score [6]: 23.6
- drug sensitivity score [7]: 20.1
- drug sensitivity score [8]: 27.4
- drug sensitivity score [9]: 21.6
- drug sensitivity score [10]: 25.5

SMILES: CCc1cnn2c(NCc3ccc[n+]([O-])c3)cc(N3CCCC[C@H]3CCO)nc12 [Dinaciclib]
- drug sensitivity score [1]: 22.1
- drug sensitivity score [2]: 25
- drug sensitivity score [3]: 16.4
- drug sensitivity score [4]: 20.2
- drug sensitivity score [5]: 10.3
- drug sensitivity score [6]: 18.5
- drug sensitivity score [7]: 13.1
- drug sensitivity score [8]: 18.8
- drug sensitivity score [9]: 17.6
- drug sensitivity score [10]: 28.3

SMILES: C=CC(=O)N1CCC[C@@H](n2nc(-c3ccc(Oc4ccccc4)cc3)c3c(N)ncnc32)C1 [Ibrutinib]
- drug sensitivity score [1]: 10.2
- drug sensitivity score [2]: 7.3
- drug sensitivity score [3]: 8.8
- drug sensitivity score [4]: 0.3
- drug sensitivity score [5]: 6
- drug sensitivity score [6]: 2.7
- drug sensitivity score [7]: 0
- drug sensitivity score [8]: 0.5
- drug sensitivity score [9]: 5.6
- drug sensitivity score [10]: 6.5
